According to US20240383852A1, “ANTI-VIRAL COMPOUNDS” (INFEX Therapeutics Limited, priority 2021, published 2024):
Counter-ions that a name gives are not always drawn.

System: human Hep G2 cells (ATCC HB-8065)
Assay: Cytotoxicity in Hep G2 cells (CellTiter-Glo)
Format: cell-based
Conditions: Hep G2 cells, 100 μM test article, 24-hour exposure

Going from `C[C@@H](NC(=O)c1cccc(N2CCN(C)CC2)c1)c1cccc2ccccc12` [Example 2, 3-(4-Methylpiperazin-1-yl)-N-[(1R)-1-(1-naphthyl)ethyl]benzamide] to `C[C@@H](NC(=O)c1cccc(C2CCNCC2)c1)c1cccc2ccccc12` [Example 6, N-[(1R)-1-(1-Naphthyl)ethyl]-3-(4-piperidyl)benzamide Hydrochloride Salt], the “% Cell Viability” value falls from 20.3% to 0.6%.

Compared with `Cc1ccc(C2CC2)cc1C(=O)N[C@H](C)c1cccc2ccccc12` [Example 4, 5-Cyclopropyl-2-methyl-N-[(1R)-1-(1-naphthyl)ethyl]benzamide], `COc1ccc([C@@H](C)NC(=O)c2cc(N3C[C@@H]4C[C@H]3CN4C)ccc2C)cc1OC` [Example 12, N-[(1R)-1-(3,4-Dimethoxyphenyl)ethyl]-2-methyl-5-[(1S,4S)-5-methyl-2,5-diazabicyclo[2.2.1]heptan-2-yl]benzamide] is higher in “% Cell Viability” value: 56.8% for the first, 91.1% for the second.

With `Cc1ccc(N2CCN(C)CC2)cc1C(=O)N[C@H](C)c1cccc(N2CCN(C)CC2)c1` [Example 104] the “% Cell Viability” value was 82.7%.

Biological target: T1, SARS-CoV-2 PLpro (Severe acute respiratory syndrome coronavirus 2, UniProt P0DTD1)
T1 construct: containing 60 nM papain-like protease
Assay: biochemical
Conditions: 60 nM papain-like protease, 50 μM Z-RLRGG-AMC, pH 7.5, 37° C.; read-out: SARS-CoV-2 PLpro IC50

`C[C@@H](NC(=O)c1cccc(N2CCN(C)CC2)c1)c1cccc2ccccc12` [Example 2, 3-(4-Methylpiperazin-1-yl)-N-[(1R)-1-(1-naphthyl)ethyl]benzamide] and `C[C@@H](NC(=O)c1ccnc(N2CCN(C)CC2)n1)c1cccc2ccccc12` [Example 316, 2-(4-Methylpiperazin-1-yl)-N-[(1R)-1-(1-naphthyl)ethyl]pyrimidine-4-carboxamide Hydrochloride Salt] cannot be ordered by IC50: < 2 µM for the first, < 100 µM for the second.

`Cc1ccc(C2CC2)cc1C(=O)N[C@H](C)c1cccc2ccccc12` [Example 4, 5-Cyclopropyl-2-methyl-N-[(1R)-1-(1-naphthyl)ethyl]benzamide] and `C[C@@H](NC(=O)c1cccc(C2CCNCC2)c1)c1cccc2ccccc12` [Example 6, N-[(1R)-1-(1-Naphthyl)ethyl]-3-(4-piperidyl)benzamide Hydrochloride Salt] cannot be ordered by IC50: < 5 µM for the first, < 20 µM for the second.

`COc1ccc([C@@H](C)NC(=O)c2cc(N3C[C@@H]4C[C@H]3CN4C)ccc2C)cc1OC` [Example 12, N-[(1R)-1-(3,4-Dimethoxyphenyl)ethyl]-2-methyl-5-[(1S,4S)-5-methyl-2,5-diazabicyclo[2.2.1]heptan-2-yl]benzamide] and `COc1cc([C@@H](C)NC(=O)c2cc(N3CCN(C)CC3)ccc2C)ccc1O` [Example 305, N-[(1R)-1-(4-Hydroxy-3-methoxy-phenyl)ethyl]-2-methyl-5-(4-methylpiperazin-1-yl)benzamide] cannot be ordered by IC50: < 5 µM for the first, < 5 µM for the second.

`Cc1ccc(N2CCCN(CCS(C)(=O)=O)CC2)cc1C(=O)N[C@H](C)c1cccc2ccccc12` [Example 177, 2-Methyl-5-[4-(2-methylsulfonylethyl)-1,4-diazepan-1-yl]-N-[(1R)-1-(1-naphthyl)ethyl]benzamide] and `COc1c(Br)cccc1[C@@H](C)NC(=O)c1cc(N2CCN(C)CC2)ccc1C` [Example 194, N-[(1R)-1-(3-Bromo-2-methoxy-phenyl)ethyl]-2-methyl-5-(4-methylpiperazin-1-yl)benzamide] cannot be ordered by IC50: < 20 µM for the first, < 100 µM for the second.

`Cc1ccc(N2CCN(C)CC2)cc1C(=O)N[C@H](C)c1cccc2c1OCCO2` [Example 183, N-[(1R)-1-(2,3-Dihydro-1,4-benzodioxin-5-yl)ethyl]-2-methyl-5-(4-methylpiperazin-1-yl)benzamide] and `Cc1ccc(N2CCN(C)CC2)cc1C(=O)N[C@H](C)c1cccs1` [Example 191, 2-Methyl-5-(4-methylpiperazin-1-yl)-N-[(1R)-1-(2-thienyl)ethyl]benzamide hydrochloride salt] cannot be ordered by IC50: < 20 µM for the first, < 100 µM for the second.

`Cc1ccc(N2CCN(C)CC2)cc1C(=O)N[C@H](C)c1cncc(Br)c1` [Example 193, N-[(1R)-1-(5-Bromo-3-pyridyl)ethyl]-2-methyl-5-(4-methylpiperazin-1-yl)benzamide] and `Cc1ccc(N2CCN(C)CC2)cc1C(=O)N[C@H](C)c1cccc(C(=O)NCCO)c1` [Example 313, N-[(1R)-1-[3-(2-Hydroxyethylcarbamoyl)phenyl]ethyl]-2-methyl-5-(4-methylpiperazin-1-yl)benzamide] cannot be ordered by IC50: < 100 µM for the first, < 20 µM for the second.

`Cc1ccc(N2CCN(C)CC2)cc1C(=O)N[C@H](C)c1cc(Cl)cc(-c2cnn(C)c2)c1` [Example 257, N-[(1R)-1-[3-Chloro-5-(1-methylpyrazol-4-yl)phenyl]ethyl]-2-methyl-5-(4-methylpiperazin-1-yl)benzamide] and `Cc1ccc(N2CCN(C)CC2)cc1C(=O)N[C@H](C)c1cc(OC(F)F)cc(-c2cnn(C)c2)c1` [Example 283, N-[(1R)-1-[3-(Difluoromethoxy)-5-(1-methylpyrazol-4-yl)phenyl]ethyl]-2-methyl-5-(4-methylpiperazin-1-yl)benzamide] cannot be ordered by IC50: < 2 µM for the first, < 2 µM for the second.

`Cc1ccc(N2CCN(C)CC2)cc1C(=O)N[C@H](C)c1cc(OCC2CC2)cc(-c2cnn(C)c2)c1` [Example 277, N-[(1R)-1-[3-(Cyclopropylmethoxy)-5-(1-methylpyrazol-4-yl)phenyl]ethyl]-2-methyl-5-(4-methylpiperazin-1-yl)benzamide] and `CCOc1cc(-c2cnn(C)c2)cc([C@@H](C)NC(=O)c2cc(N3CCN(C)CC3)ccc2C)c1` [Example 278, N-[(1R)-1-[3-Ethoxy-5-(1-methylpyrazol-4-yl)phenyl]ethyl]-2-methyl-5-(4-methylpiperazin-1-yl)benzamide] cannot be ordered by IC50: < 2 µM for the first, < 2 µM for the second.

`Cc1ccc(N2CCN(C)CC2)cc1C(=O)N[C@H](C)c1cc(OC(C)C)cc(-c2cnn(C)c2)c1` [Example 279, N-[(1R)-1-[3-Isopropoxy-5-(1-methylpyrazol-4-yl)phenyl]ethyl]-2-methyl-5-(4-methylpiperazin-1-yl)benzamide] and `Cc1ccc(N2CCN(C)CC2)cc1C(=O)N[C@H](C)c1cc(OCCO)cc(-c2cnn(C)c2)c1` [Example 281, N-[(1R)-1-[3-(2-Hydroxyethoxy)-5-(1-methylpyrazol-4-yl)phenyl]ethyl]-2-methyl-5-(4-methylpiperazin-1-yl)benzamide] cannot be ordered by IC50: < 2 µM for the first, < 2 µM for the second.

`COc1cc(-c2cn(C)nc2C)cc([C@@H](C)NC(=O)c2cc(C3CCNCC3)ccc2C)c1` [Example 304, N-[(1R)-1-[3-(1,3-Dimethylpyrazol-4-yl)-5-methoxy-phenyl]ethyl]-2-methyl-5-(4-piperidyl)benzamide] and `CNCCN(C)C(=O)c1cccc([C@@H](C)NC(=O)c2cc(N3CCN(C)CC3)ccc2C)c1` [Example 314, 2-Methyl-N-[(1R)-1-[3-[methyl-[2-(methylamino)ethyl]carbamoyl]phenyl]ethyl]-5-(4-methylpiperazin-1-yl)benzamide Dihydrochloride Salt] cannot be ordered by IC50: < 2 µM for the first, < 20 µM for the second.

`Cc1ccc(N2CCN(C)CC2)cc1C(=O)N[C@H](C)c1cccc(C(=O)N2CCN(C)CC2)c1` [Example 307, 2-Methyl-N-[(1R)-1-[3-(4-methylpiperazine-1-carbonyl)phenyl]ethyl]-5-(4-methylpiperazin-1-yl)benzamide] and `C[C@@H](NC(=O)c1cncc(N2CCN(C)CC2)n1)c1cccc2ccccc12` [Example 320, 6-(4-Methylpiperazin-1-yl)-N-[(1R)-1-(1-naphthyl)ethyl]pyrazine-2-carboxamide Hydrochloride Salt] cannot be ordered by IC50: < 2 µM for the first, < 100 µM for the second.

First: C[C@@H](NC(=O)c1ccnc(N2CCN(CCO)CC2)n1)c1cccc2ccccc12 [Example 317, 2-[4-(2-Hydroxyethyl)piperazin-1-yl]-N-[(1R)-1-(1-naphthyl)ethyl]pyrimidine-4-carboxamide hydrochloride salt]
Second: C[C@@H](NC(=O)c1ccnc(N2CC[C@H](N)C2)n1)c1cccc2ccccc12 [Example 318, 2-[(3S)-3-Aminopyrrolidin-1-yl]-N-[(1R)-1-(1-naphthyl)ethyl]pyrimidine-4-carboxamide]
The IC50 of the first is higher: > 100 µM for the first, < 100 µM for the second.

`C[C@@H](NC(=O)c1ccnc(N2CC[C@@H](N)C2)n1)c1cccc2ccccc12` [Example 319, 2-[(3R)-3-Aminopyrrolidin-1-yl]-N-[(1R)-1-(1-naphthyl)ethyl]pyrimidine-4-carboxamide Hydrochloride Salt] was tested, and the IC50 was > 100 µM.
